Data on 8 compounds can be found in US7183317B2, “Compounds and methods to increase plasma HDL cholesterol levels and improve HDL functionality” (Atherogenics, Inc., priority 2004, dated 2007).

Values joined by “and” are separate entries in the source; they are usually repeats but may differ in a detail not shown here. Equal entries are not always repeated.

For experiment [1], the system named is HepG2 cells. The experiment is described as follows: Uptake/delivery of 3[H] cholesteryl ester-HDL to HepG2 cells. The format is cell-based, human. To be noted: 12.5 μM, 50 μg/ml 3[H] CE-HDL, 3.5 h, 37° C., vs 100% delivery without compound. On the procedure: ^3[H]cholesteryl Hexadecyl Ether-labeled HDL was prepared as described by Rodrigueza et al. (Rodrigueza W. V. et al. (1999) J. Biol. Chem. 274:20344–20350). 40 μCi of ^3[H]hexadecyl ether (40–60 Ci/mmol, NEN life Sciences Products) were incubated with 5 mg of HDL3 and 240 mg of heat-inactivated lipoprotein-deficient plasma, 0.01% aprotinin in a polypropylene tube sealed with nitrogen gas for 40 h at 37° C. according to the method of Terpstra et al. ^3[H]-CE enriched HDL was re-isolated by flotation ultracentrifugation and dialyzed against phosphate-buffered saline (PBS). To perform CE uptake studies, HepG2 cells, seeded in 6 or 12 well plates were grown for 2 days till 80% confluent and, then treated with compounds in 1% RSA-DMEM medium for 24 h. The next day, cells were treated with 12.5 μM compounds and 50 μg/mL of ^3[H]-CE HDL for 3.5 h at 37° C. After incubation, cells were washed 4 times with PBS/BSA and 2 times with PBS, followed by addition of 0.1 N NAOH. Cells were collected, and radioactivity was measured in counts per minute and expressed as percent of ^3[H]-CE delivered to cells.
HepG2 cells were cultured as described above and incubated with 50 μg/ml of ^3[H] CE-HDL particles and compounds for 3.5 h at 37° C. […] CE delivery to HepG2 cells resulting from treatment with indicated compounds compared to a 100% delivery in the absence of any compound. […] CE, as also described by Jin et al. (Jin, F. et al. (1997) Atheroscler. Thromb Vasc Biol. 17: 2020–2028).

Another experiment has as its system apoAI. As to the kind of experiment: apoAI synthesis. In kind it is cell-based.
The next experiment concerns HDL holoprotein. As to the kind of experiment: Hepatic clearance/uptake of HDL holoprotein. The format is cell-based.
The subject of experiment [2] is HepG2 cells. The experiment is described as follows: apoAI-HDL elevation cell-based screen (apoAI accumulation by ELISA). Set-up: species or system human. The note with it: for increase of apoAI accumulation / circulating apoAI-HDL: 1 mM. On the procedure:
HepG2 cells were obtained from the American Type Culture Collection (Rockville, Md.). Fetal bovine serum (FBS) was purchased from Gibco Laboratories. Cells were cultured in minimum essential medium (MEM) containing 10% FBS, and 100 μg/mL of streptomycin, 100 unit/mL of penicillin, and 4 mM of glutamine (Gibco/BRL). Cells were grown for 2 days till they are 80% confluent in 6-well, or 12-well plates before studies. In all cases medium was changed every other day.
To measure apoAI, 96-well microtiter plates were coated with a 1:1000 diluted mixture of three monoclonal antibodies against human apoAI (A05, A17, and A44) for 2 h and incubated in succession with HDL3 (0 to 15 ng/well), sheep polyclonal anti-apoAI serum (Boehringer Mannheim), alkaline phosphatase-labeled rabbit anti-sheep (Cappel), and p-nitrophenyl phosphate (1 mg/mL in 10 mmol/L ethanolamine, 0.5 mmol/L MgCl2, pH 9.5), for 2, 1 and 1 h respectively at 37° C. The plates were washed three times between different incubations. The absorbance at 405 nm was determined by using a Bio-Rad model 550 microplate reader (Bio-Rad).
The effect of Compound A on apoAI-HDL elevation was measured using a cell-based screen assay. The hepatic model, HepG2 cells, was used to observe the accumulation of apoAI as a result of secretion and/or uptake of apoAI; both processes taking place in the liver. HepG2 cells were treated with compounds for 24 hours or 48 hours in DMEM containing 1% RSA. apoAI accumulation was measured by ELISA as described in Materials and Methods.

For experiment [3], the system named is hypercholesterolemic hamsters. In kind it is in vivo. To be noted: two weeks; for percent increase of HDL cholesterol: 150 mg/kg/d in chow; for percent increase of HDL cholesterol / percent lowering of HDLc: compared to untreated controls. The text has this: Male Golden Syrian hamsters weighing 110–120 g were obtained from Charles River Laboratories (Wilmington, Mass.). Hamsters were housed individually with wood chip bedding and soft nesting material with lights on a 6 A.M. and off at 6 p.m. Upon arrival the hamsters were acclimated for three days on standard rodent chow and water (Purina rodent chow 5001) ad libitum. Prior to dosing, the hamsters were made hypercholesterolemic by feeding them a powdered diet supplemented with 0.5% cholesterol and 10% coconut oil (Harlan Teklad diet #97235) for one week. Water was added to the powdered chow to form a paste and the chow paste rolled into balls with each animal receiving 20 g of chow paste per day in stainless steel bowls. Chow intake was recorded daily. Body weights were recorded after one week and at the end of the end of the study. Hamsters were distributed into treatment groups after the one-week pretreatment period such that each group had similar average body weights.
Compound A homogenized in methylcellulose/Tween-20 using a polytron PT2100 homogenizer (Brinkman) before adding it to the high cholesterol chow paste and administered as an admixture at the same time each morning for two weeks. At the end of the treatment period the hamsters were fasted in the late afternoon on the day prior to blood collection. Fasting was achieved by transferring the hamsters to clean cages and removing chow stored in cheek pouches. Hamsters were anesthetized with ketamine/rompun solution. When unresponsive to toe pinch and still respiring, blood was collected via cardiac puncture from which plasma was separated and frozen at −80° C.
Lipoproteins were isolated from whole plasma by Fast Phase Liquid Chromatography (FPLC). Cholesterol and triglyceride concentrations in the different lipoprotein fractions were determined by enzymatic methods using a CX-5 chemical analyzer and standard Beckman reagents.
A Dunnetts test was used to compare the experimental and control groups. P<0.05 was considered significant.
The effect of Compound A on HDLc levels was assessed using hypercholesterolemic hamsters. Male Golden Syrian hamsters were fed as described in Materials and Methods. Compound A homogenized as described above before adding it to the high cholesterol chow paste and administered as an admixture at the same time each morning for two weeks. At the end of the treatment period the hamsters were fasted in the late afternoon on the day prior to blood collection. Hamsters were anesthetized with ketamine/rompun solution. When unresponsive to toe pinch and still respiring, blood was collected via cardiac puncture from which plasma was separated and frozen at −80° C.
LDL cholesterol was not affected. Lipid profiles were obtained according to the method published by Lee, A. and coworkers (W. Innis-Whitehouse, X. Li, V. Brown and N. Lee., J. Lipid Res. 39, 679 (1998)).

The next experiment relates to SR-BI/II receptors. As to the kind of experiment: 3[H] CE delivery to HepG2 cells with anti SR-BI/II antibody blocking. In kind it is cell-based. As to the method:
It was important to discern whether or not Compound A was acting through the SR-BI/II receptors to increase the delivery of cholesterol. HepG2 cells were incubated with anti-mouse SR-BI/II antibodies for 45 min. Compound A was then added, and the cells were incubated with 30 μg/ml of ^3[H] CE-HDL for 3.5 h at 37° C. Anti-mouse SR-BI/II antibodies (1.0 mg/mL) reduced delivery of ^3[H] CE by 76%, while Compound A increase the delivery of ^3[H] CE to HepG2 cells by 56%. […] CE to cells provoked by Compound A. Further the anti SR-BI/II antibodies decreased the delivery of ^3[H] CE from 156% to 28% (FIG. 4).

The mark [4] stands for this setting: 12.5 μM, compared to control (absence of compounds).

Text for HDL holoprotein: The trichloroacetic-precipitable labeled apoAI-HDL in the conditioned medium represents degraded labeled apoAI-HDL. After washing and detaching, cells are centrifuged. Labeled apoAI-HDL in the cellular fraction represents internalized HDL holoprotein; whereas, label in the supernatant represents cell surface bound apoAI-HDL that has been dissociated. Increased amounts of labeled HDL in cells treated with compounds versus cells not treated with compounds indicates increased degradation, internalization, or binding to the cell surface. Compounds are selected which decrease the amount of apoAI-HDL label in the cellular fraction of the cells contacted with a test compound compared to the amount of label in the cellular fraction of the cells not contacted with the test compound. […] Label in the conditioned medium represents degraded labeled-HDL. After washing and detaching, cells are centrifuged. Label in the cellular fraction represents internalized HDL holoprotein; whereas, label in the supernatant represents cell surface bound apoAI-HDL that has been dissociated. Increased amounts of label in cells treated with compounds versus cells not treated with compounds indicates increased degradation, internalization, or binding of apoAI-HDL to the cell surface. […]

Take `CC(C)(Sc1cc(C(C)(C)C)c(O)c(C(C)(C)C)c1)Sc1cc(C(C)(C)C)c(O)c(C(C)(C)C)c1` [Probucol, 4,4′-(isopropylidenedithio)bis(2,6-di-tert-butylphenol), reference compound]: the results for the “percent increase of 3[H]CE delivery to HepG2 cells” value in the experiment with HepG2 cells [1] and with HepG2 cells [1] (listed as probucol) were 29% and “increased”, respectively. In addition, the “effect on synthesis of apoAI (newly synthesized apoAI)” value in the experiment with apoAI is reported as “reduced”. Further, in the experiment on HDL holoprotein, the HDL holoprotein uptake result was “reduced”. In addition, the “percent decrease of apoAI (apoAI-HDL) accumulation” value (“percent decrease of apoAI” below) in the experiment with HepG2 cells [2] (12.5 μM, compared to control) is 23%.

Regarding `CC1=C(/C=C/C(C)=C/C=C/C(C)=C/C(=O)O)C(C)(C)CCC1` [Retinoic acid, reference compound], in the experiment with HepG2 cells [2] (10 μM, positive control), the “percent increase of apoAI accumulation” value came to 53.6%.

Regarding `CC(C)(Sc1cc(C(C)(C)C)c(O)c(C(C)(C)C)c1)Sc1cc(C(C)(C)C)c(OCC(O)CNCC(=O)O)c(C(C)(C)C)c1` (centres unmarked) [Compound C, Glycine, N-[3-[4-[1-[[3,5-bis(1,1-dimethylethyl)-4-hydroxyphenyl]thio]-methylethyl]thio-2,6-bis(1,1-dimethylethyl)phenoxy]-2-hydroxypropyl]], the “percent increase of apoAI (apoAI-HDL) accumulation” value with HepG2 cells [2] (setting [4]) is given as roughly 15%. For the same compound, the “percent increase of HDL cholesterol” value in experiment [3] was determined as 40%.

For `O=C(O)c1cccnc1` [Niacin, Nicotinic acid, reference compound], the “increase of apoAI accumulation / circulating apoAI-HDL” value in the experiment on HepG2 cells [2] is on record as “increased”; in the experiment on HepG2 cells [2] (listed as niacin), 10%.

On to `CC(C)(Sc1cc(C(C)(C)C)c(O)c(C(C)(C)C)c1)Sc1cc(C(C)(C)C)c(OC[C@@H](O)[C@@H](O)[C@@H](O)C(=O)O)c(C(C)(C)C)c1` [Compound A, 5-[4-[1-[(3,5-bis(1,1-dimethylethyl)-4-hydroxyphenyl)thio]-1-methylethyl]thio-2,6-bis(1,1-dimethylethyl)phenoxy]-2(R),3(R),4(R)-trihydroxypentanoic acid], for which the “percent increase of 3[H]CE delivery to HepG2 cells” value in the experiment with HepG2 cells [1] is 109% and 108%; in the experiment on SR-BI/II receptors (30 μg/ml 3[H] CE-HDL, 3.5 h, 37° C., no antibody), 56%. The “delivery of 3[H] CE, percent of control” value amounted to 28% in the experiment on SR-BI/II receptors (Compound A in presence of anti SR-BI/II antibodies) and 156% in the experiment with SR-BI/II receptors (Compound A without antibodies). Also, the “percent increase of apoAI (apoAI-HDL) accumulation” value in the experiment on HepG2 cells [2] (setting [4]) is 122.5% and 122%; in the experiment on HepG2 cells [2] (25 μM, compared to control), 132.5% and 132%. The “percent increase of HDL cholesterol” value in experiment [3] came to 30%. The “effect on LDL cholesterol” value in experiment [3] (150 mg/kg/d) is on record as “not affected”.

For the compound `CC(C)(Sc1cc(C(C)(C)C)c(O)c(C(C)(C)C)c1)Sc1cc(C(C)(C)C)c(OC[C@H]2OC(O)[C@H](O)[C@@H](O)[C@@H]2O)c(C(C)(C)C)c1` (some centres unmarked) [Compound D], in the experiment with HepG2 cells [2] (12.5 μM, compared to control), the “percent decrease of apoAI” value is “about 10%”. Besides, the “percent lowering of HDLc” value in experiment [3] (150 mg/kg/d) was roughly 80%.

As for `CC(C)(Sc1cc(C(C)(C)C)c(O)c(C(C)(C)C)c1)Sc1cc(C(C)(C)C)c(OCCCCOS(=O)(=O)O)c(C(C)(C)C)c1` [B, Sulfuric acid, mono-(4-{2,6-di-tert-butyl-4-[1-(3,5-di-tert-butyl-4-hydroxy-phenyl-sulfanyl)-1-methylethylsulfanyl]-phenoxy}-butyl)ester], the “percent increase of apoAI (apoAI-HDL) accumulation” value in the experiment with HepG2 cells [2] (setting [4]) is roughly 30%.

Regarding `CC(C)(Sc1cc(C(C)(C)C)c(O)c(C(C)(C)C)c1)Sc1cc(C(C)(C)C)c(OC[C@@H](O)[C@H](O)[C@H](O)[C@H](O)CO)c(C(C)(C)C)c1` [Compound E], the “percent decrease of apoAI” value with HepG2 cells [2] (12.5 μM, compared to control) is given as “about 10%”. Moreover, the “percent lowering of HDLc” value in experiment [3] (150 mg/kg/d) is on record as roughly 40%.
